Experimental findings from US20110251379A1, “COMPOUNDS USEFUL FOR TREATING NEURODEGENERATIVE DISORDERS” (Satori Pharmaceuticals, Inc., priority 2010, published 2011) are described below.

Type in all cases: cell-based
In one experiment the test system is Aβ-40. Kind of experiment: MSD Human (6E10) Ab 3-PLEX elisa, conditioned media of 2B7 cells: Aβ-40. Conditions: for IC50: Aβ-40 (superscript b). The procedure, abridged: (§1)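 Each Aβ peptide was measured by MSD 6E10 3-plex electrochemiluminescence against its own seven-point standard curve. Samples were conditioned media from 2B7 cells exposed to compound for 5 hours at 37° C with 1% DMSO. Percent-vehicle values were fitted to a 4-parameter curve to give IC50.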

The subject of another experiment is Aβ-38. Description: MSD Human (6E10) Ab 3-PLEX elisa, conditioned media of 2B7 cells: Aβ-38. Conditions: Aβ-38 (superscript a). The procedure, abridged: as §1
Another experiment deals with Aβ-42. Kind of experiment: MSD Human (6E10) Ab 3-PLEX elisa, conditioned media of 2B7 cells: Aβ-42. Conditions: for IC50: Aβ-42 (superscript c). The gist of the method: as §1
[1] abbreviates: Homo sapiens, read-out: 50% reduction value.
[2] abbreviates: Homo sapiens, read-out: IC50 range.

Read-outs that look alike come from different tables or passages of the source.

Turning to `CC(=O)OCC1CC(C)C2C(O1)C(O)C1(C)C3CCC4C(C)(C)C(OC(=O)c5cccnc5)CCC45CC35CCC21C` (stereo not shown) [drawing 1210], the IC50 with Aβ-40 (read-out: 50% reduction value) was 1000 to 10000 nM; in the experiment on Aβ-40 (read-out: IC50 range), greater than 10000 nM; in the experiment with Aβ-38 (read-out: 50% reduction value), 1000 to 10000 nM; in the experiment with Aβ-42 (read-out: 50% reduction value) it was 1000 to 10000 nM; in the experiment on Aβ-42 (read-out: IC50 range), 1000 to 10000 nM.
In the case of `CC(=O)N(Cc1cc(F)cc(F)c1)CC1CC(C)C2C(O1)C(O)C1(C)C3CCC4C(C)(C)C(O)CCC45CC35CCC21C` (stereo not shown) [drawing 1211], the IC50 in the experiment with Aβ-40 (read-out: 50% reduction value) is greater than 10000 nM; with Aβ-38 (read-out: 50% reduction value), 1000 to 10000 nM; in the experiment with Aβ-42 (read-out: 50% reduction value), 1000 to 10000 nM.
As for `CC(=O)N(Cc1ccccn1)CC1CC(C)C2C(O1)C(O)C1(C)C3CCC4C(C)(C)C(O)CCC45CC35CCC21C` (stereo not shown) [drawing 1212], the IC50 in the experiment with Aβ-40 (read-out: 50% reduction value), in the experiment on Aβ-38 (read-out: 50% reduction value) and with Aβ-42 (read-out: 50% reduction value) was greater than 10000 nM in each case.
In the case of `CC(=O)N(CC1CC(C)C2C(O1)C(O)C1(C)C3CCC4C(C)(C)C(O)CCC45CC35CCC21C)C(C)C` (stereo not shown) [drawing 1213], the “% Inh. (range)” value is recorded as “E^b (100 μM) E^c (100 μM) (% inhibition of 25-75%)” in the experiment with Aβ-40 (Aβ-40, 100 μM) and “E^b (100 μM) E^c (100 μM) (% inhibition of 25-75%)” in the experiment with Aβ-42 (Aβ-42, 100 μM). Moreover, the IC50 in the experiment with Aβ-38 (read-out: 50% reduction value) lay within 1000 to 10000 nM.
Turning to `CC1CC(C(OC(=O)C2CC2)C(C)(C)O)OC2C1C1(C)CCC34CC35CCC(O)C(C)(C)C5CCC4C1(C)C2O` (stereo not shown) [drawing 1214], the IC50 was 1000 to 10000 nM in the experiment on Aβ-40 (read-out: 50% reduction value), 1000 to 10000 nM in the experiment with Aβ-38 (read-out: 50% reduction value) and less than 1000 nM with Aβ-42 (read-out: 50% reduction value).
With `CC(=O)N(Cc1cc(F)cc(F)c1)CC1CC(C)C2C(O1)C(O)C1(C)C3CCC4C(C)(C)C(OC(=O)C5CNC5)CCC45CC35CCC21C` (stereo not shown) [drawing 1215], the IC50 with Aβ-40 (read-out: 50% reduction value), with Aβ-40 (read-out: IC50 range), with Aβ-38 (read-out: 50% reduction value), in the experiment on Aβ-38 (read-out: IC50 range), in the experiment with Aβ-42 (read-out: 50% reduction value) and in the experiment on Aβ-42 (read-out: IC50 range) was 1000 to 10000 nM throughout.
For the compound `CC1CC(C(OC(=O)C2CCC2)C(C)(C)O)OC2C1C1(C)CCC34CC35CCC(O)C(C)(C)C5CCC4C1(C)C2O` (stereo not shown) [drawing 1216], the IC50 in the experiment on Aβ-40 (read-out: 50% reduction value) is 1000 to 10000 nM; in the experiment on Aβ-38 (read-out: 50% reduction value) it was 1000 to 10000 nM; in the experiment on Aβ-42 (read-out: 50% reduction value) it was less than 1000 nM.
Consider `CC1CC(C(OC(=O)N(C)C)C(C)(C)O)OC2C1C1(C)CCC34CC35CCC(O)C(C)(C)C5CCC4C1(C)C2O` (stereo not shown) [drawing 1217], for which the “% Inh. (range)” value is “E^b (20 μM) E^c (20 μM) (% inhibition of 25-75%)” in the experiment with Aβ-40 (Aβ-40, 20 μM) and “E^b (20 μM) E^c (20 μM) (% inhibition of 25-75%)” in the experiment with Aβ-42 (Aβ-42, 20 μM). Moreover, the IC50 with Aβ-38 (read-out: 50% reduction value) was 1000 to 10000 nM.
Turning to `CC1CC(C(=O)C(C)(C)O)OC2C1C1(C)CCC34CC35CCC(O)C(C)(C)C5CCC4C1(C)C2O` (stereo not shown) [drawing 1218], the “% Inh. (range)” value in the experiment with Aβ-40 (Aβ-40, 20 μM) is given as “E (% inhibition of 25-75%)”; in the experiment with Aβ-42 (Aβ-42, 20 μM), “F (% inhibition of <25%)”. The IC50 in the experiment on Aβ-38 (read-out: 50% reduction value) is 1000 to 10000 nM.
`CC1CC(C(OC(=O)C2CCC2)C(C)(C)O)OC2C1C1(C)CCC34CC35CCC(OC3CN(C6COC6)CCO3)C(C)(C)C5CCC4C1(C)C2O` (stereo not shown) [drawing 1219]: the IC50 in the experiment with Aβ-40 (read-out: 50% reduction value), with Aβ-38 (read-out: 50% reduction value), in the experiment on Aβ-38 (read-out: IC50 range) and in the experiment with Aβ-42 (read-out: 50% reduction value) was less than 1000 nM each time.
For the compound `CC(C)C(=O)OC(C1CC(C)C2C(O1)C(O)C1(C)C3CCC4C(C)(C)C(OC5CN(C6COC6)CCO5)CCC45CC35CCC21C)C(C)(C)O` (stereo not shown) [drawing 1220], the IC50 in the experiment on Aβ-40 (read-out: 50% reduction value) is 1000 to 10000 nM; in the experiment on Aβ-38 (read-out: 50% reduction value), less than 1000 nM; in the experiment on Aβ-38 (read-out: IC50 range), less than 1000 nM; with Aβ-42 (read-out: 50% reduction value), less than 1000 nM.
Take `CC(=O)O[C@@H]([C@H]1C[C@@H](C)C2C(O1)C(=O)[C@@]1(C)[C@@H]3CC[C@H]4C(C)(C)[C@@H](O[C@@H]5OC[C@@H](O)[C@H](O)[C@H]5O)CC[C@@]45C[C@@]35CC[C@]21C)C(C)(C)O` (stereo partly shown) [drawing 1230]: the IC50 is 1000 to 10000 nM in the experiment with Aβ-40 (setting [1]); 1000 to 10000 nM in the experiment on Aβ-38 (setting [1]); 1000 to 10000 nM in the experiment on Aβ-38 (setting [2]); greater than 10000 nM in the experiment with Aβ-42 (setting [1]); less than 1000 nM with Aβ-42 (setting [2]).
Take `CC(=O)O[C@@H]([C@H]1C[C@@H](C)C2C(O1)[C@H](O)[C@@]1(C)[C@@H]3CC[C@H]4C(C)(C)[C@@H](O)CC[C@@]45C[C@@]35CC[C@]21C)C(C)(C)O` (stereo partly shown) [drawing 1231]: in the experiment with Aβ-40 (Homo sapiens, Aβ-40, 20 μM), the inhibition at 20 µM was 25 to 75%. For the same compound, the IC50 in the experiment with Aβ-38 (setting [1]) and in the experiment on Aβ-42 (setting [1]) was 1000 to 10000 nM in each case.
For `CCO[C@@H](C1C[C@@H](C)[C@H]2C(O1)[C@H](O)[C@@]1(C)C3CC[C@H]4C(C)(C)C(OC5CN(Cc6ccccc6)CCO5)CC[C@@]45C[C@@]35CC[C@]21C)C(C)(C)O` (stereo partly shown) [drawing 1282], the IC50 in the experiment on Aβ-40 (setting [1]), with Aβ-38 (setting [1]), in the experiment with Aβ-38 (setting [2]), with Aβ-42 (setting [1]) and in the experiment on Aβ-42 (setting [2]) was 1000 to 10000 nM throughout.
`CCO[C@@H](C1C[C@@H](C)[C@H]2C(O1)[C@H](O)[C@@]1(C)C3CC[C@H]4C(C)(C)C(OC(=O)NC5CCNC5=O)CC[C@@]45C[C@@]35CC[C@]21C)C(C)(C)O` (stereo partly shown) [drawing 1289]: the IC50 with Aβ-40 (read-out: IC50 range) is 1000 to 10000 nM; in the experiment with Aβ-40 (setting [1]), 1000 to 10000 nM; in the experiment on Aβ-38 (setting [1]), less than 1000 nM; in the experiment on Aβ-42 (setting [1]), less than 1000 nM; in the experiment with Aβ-42 (setting [2]), less than 1000 nM.
Take `CCO[C@@H](C1C[C@@H](C)[C@H]2C(O1)[C@H](O)[C@@]1(C)C3CC[C@H]4C(C)(C)C(OC(=O)NC5CCNC5=O)CC[C@@]45C[C@@]35CC[C@]21C)C(C)(C)O` (stereo partly shown) [drawing 1290]: the IC50 with Aβ-40 (read-out: 50% reduction value) was 1000 to 10000 nM; in the experiment on Aβ-40 (read-out: IC50 range), greater than 10000 nM; in the experiment with Aβ-38 (read-out: 50% reduction value), less than 1000 nM; with Aβ-38 (setting [2]), less than 1000 nM; with Aβ-42 (read-out: 50% reduction value), less than 1000 nM; in the experiment with Aβ-42 (read-out: IC50 range) it was less than 1000 nM.
In the case of `CCO[C@@H](C1C[C@@H](C)[C@H]2C(O1)[C@H](O)[C@@]1(C)C3CC[C@H]4C(C)(C)C(OC5CN(Cc6ccccc6)CCO5)CC[C@@]45C[C@@]35CC[C@]21C)C(C)(C)O` (stereo partly shown) [drawing 1307], the IC50 in the experiment with Aβ-40 (read-out: 50% reduction value), in the experiment with Aβ-38 (read-out: IC50 range) and in the experiment on Aβ-42 (read-out: IC50 range) was 1000 to 10000 nM throughout.
